Laboratory results: patent US20210254056A1, “IDENTIFICATION AND TARGETED MODULATION OF GENE SIGNALING NETWORKS” (CAMP4 THERAPEUTICS CORPORATION, priority 2017, published 2021)

Tested on: hepatocytes
Experiment: RNA-seq of hepatocytes treated with Phase III failure compounds
Experimental: RNA-seq was performed to determine the effects of the compounds on hepatocytes.
Significance was determined by the criteria of FPKM≥0.5, a log 2(fold-change)≥1, and a […].

Compound: CCC(CC)[C@H](NC(C)=O)[C@@H]1[C@H](O)[C@@H](C(=O)O)C[C@H]1NC(=N)N.O.O.O [peramivir (trihydrate), peramivir]
- RNA-seq results, gene HYLS1 (HYLS1 expression in hepatocytes): −0.16
- RNA-seq results, gene ID1 (ID1 expression in hepatocytes): −0.69
- RNA-seq results, gene IDH1 (IDH1 expression in hepatocytes): 0.19
- RNA-seq results, gene IDH2 (IDH2 expression in hepatocytes): 0
- RNA-seq results, gene IDUA (IDUA expression in hepatocytes): 0.34
- RNA-seq results, gene IFIH1 (IFIH1 expression in hepatocytes): −0.06
- RNA-seq results, gene IFNAR2 (IFNAR2 expression in hepatocytes): 0.01
- RNA-seq results, gene IFT27 (IFT27 expression in hepatocytes): 0.27
- RNA-seq results, gene IFT80 (IFT80 expression in hepatocytes): −0.41
- RNA-seq results, gene IFT122 (IFT122 expression in hepatocytes): −0.16
- RNA-seq results, gene IFT140 (IFT140 expression in hepatocytes): 0.27
- RNA-seq results, gene IFT172 (IFT172 expression in hepatocytes): 0.16
- RNA-seq results, gene IGFALS (IGFALS expression in hepatocytes): 0.11
- RNA-seq results, gene IKBKG (IKBKG expression in hepatocytes): 0.3
- RNA-seq results, gene IL1RN (IL1RN expression in hepatocytes): 0.21
- RNA-seq results, gene IL2RG (IL2RG expression in hepatocytes): 0.6
- RNA-seq results, gene INSR (INSR expression in hepatocytes): 0.28
- RNA-seq results, gene INVS (INVS expression in hepatocytes): −0.03
- RNA-seq results, gene ISYNA1 (ISYNA1 expression in hepatocytes): −0.17
- RNA-seq results, gene ITGB3 (ITGB3 expression in hepatocytes): 0.27
- RNA-seq results, gene IYD (IYD expression in hepatocytes): −0.02
- RNA-seq results, gene JAG1 (JAG1 expression in hepatocytes): −0.1
- RNA-seq results, gene JAK2 (JAK2 expression in hepatocytes): −0.14
- RNA-seq results, gene KCTD7 (KCTD7 expression in hepatocytes): 0.11
- RNA-seq results, gene KCTD11 (KCTD11 expression in hepatocytes): −0.21
- RNA-seq results, gene KHK (KHK expression in hepatocytes): 0.03
- RNA-seq results, gene KIAA0586 (KIAA0586 expression in hepatocytes): −0.2
- RNA-seq results, gene KMT2D (KMT2D expression in hepatocytes): −0.05
- RNA-seq results, gene KPTN (KPTN expression in hepatocytes): 0.22
- RNA-seq results, gene KRIT1 (KRIT1 expression in hepatocytes): −0.1
- RNA-seq results, gene KRT18 (KRT18 expression in hepatocytes): −0.47
- RNA-seq results, gene KYNU (KYNU expression in hepatocytes): 0.16
- RNA-seq results, gene LAMB2 (LAMB2 expression in hepatocytes): 0.01
- RNA-seq results, gene LCAT (LCAT expression in hepatocytes): 0.11
- RNA-seq results, gene LDHB (LDHB expression in hepatocytes): −0.34
- RNA-seq results, gene LDLR (LDLR expression in hepatocytes): 0.24
- RNA-seq results, gene LDLRAP1 (LDLRAP1 expression in hepatocytes): 0.2
- RNA-seq results, gene LIPC (LIPC expression in hepatocytes): −0.29
- RNA-seq results, gene LIPT1 (LIPT1 expression in hepatocytes): −0.12
- RNA-seq results, gene LMNB2 (LMNB2 expression in hepatocytes): 0.14
- RNA-seq results, gene LPA (LPA expression in hepatocytes): 0.07
- RNA-seq results, gene LPIN1 (LPIN1 expression in hepatocytes): 0.22
- RNA-seq results, gene LPIN2 (LPIN2 expression in hepatocytes): 0.1
- RNA-seq results, gene LRBA (LRBA expression in hepatocytes): −0.32
- RNA-seq results, gene LRP5 (LRP5 expression in hepatocytes): 0.15
- RNA-seq results, gene LYRM4 (LYRM4 expression in hepatocytes): 0.19
- RNA-seq results, gene LYST (LYST expression in hepatocytes): −0.14
- RNA-seq results, gene MAN1A1 (MAN1A1 expression in hepatocytes): −0.26
- RNA-seq results, gene MAN2B1 (MAN2B1 expression in hepatocytes): 0.13
- RNA-seq results, gene MAOB (MAOB expression in hepatocytes): −0.16
- RNA-seq results, gene MAT1A (MAT1A expression in hepatocytes): 0.3
- RNA-seq results, gene MBL2 (MBL2 expression in hepatocytes): −0.47
- RNA-seq results, gene MCCC1 (MCCC1 expression in hepatocytes): 0.01
- RNA-seq results, gene MCCC2 (MCCC2 expression in hepatocytes): −0.2
- RNA-seq results, gene MCM6 (MCM6 expression in hepatocytes): −0.05
- RNA-seq results, gene MEN1 (MEN1 expression in hepatocytes): 0.15
- RNA-seq results, gene MET (MET expression in hepatocytes): −0.2
- RNA-seq results, gene MGAT2 (MGAT2 expression in hepatocytes): 0.09
- RNA-seq results, gene MKS1 (MKS1 expression in hepatocytes): 0.17
- RNA-seq results, gene MLH1 (MLH1 expression in hepatocytes): −0.06
- RNA-seq results, gene MMAA (MMAA expression in hepatocytes): −0.35
- RNA-seq results, gene MMAB (MMAB expression in hepatocytes): 0.27
- RNA-seq results, gene MMADHC (MMADHC expression in hepatocytes): −0.24
- RNA-seq results, gene MOCS1 (MOCS1 expression in hepatocytes): 0.13
- RNA-seq results, gene MOGAT2 (MOGAT2 expression in hepatocytes): −0.04
- RNA-seq results, gene MOGS (MOGS expression in hepatocytes): 0.24
- RNA-seq results, gene MPZ (MPZ expression in hepatocytes): 0.41
- RNA-seq results, gene MRPL3 (MRPL3 expression in hepatocytes): −0.06
- RNA-seq results, gene MTHFR (MTHFR expression in hepatocytes): 0.35
- RNA-seq results, gene MTM1 (MTM1 expression in hepatocytes): −0.13
- RNA-seq results, gene MTO1 (MTO1 expression in hepatocytes): −0.03
- RNA-seq results, gene MTR (MTR expression in hepatocytes): −0.08
- RNA-seq results, gene MTRR (MTRR expression in hepatocytes): −0.2
- RNA-seq results, gene MTTP (MTTP expression in hepatocytes): −0.29
- RNA-seq results, gene MVK (MVK expression in hepatocytes): 0.29
- RNA-seq results, gene MYH9 (MYH9 expression in hepatocytes): 0.02
- RNA-seq results, gene MYO5B (MYO5B expression in hepatocytes): 0.2
- RNA-seq results, gene NAGS (NAGS expression in hepatocytes): 0.46
- RNA-seq results, gene NARS2 (NARS2 expression in hepatocytes): −0.14
- RNA-seq results, gene NAT2 (NAT2 expression in hepatocytes): −0.1
- RNA-seq results, gene NBAS (NBAS expression in hepatocytes): −0.22
- RNA-seq results, gene NCF2 (NCF2 expression in hepatocytes): 0.47
- RNA-seq results, gene NEK1 (NEK1 expression in hepatocytes): 0.1
- RNA-seq results, gene NEK8 (NEK8 expression in hepatocytes): 0.29
- RNA-seq results, gene NEU1 (NEU1 expression in hepatocytes): 0.51
- RNA-seq results, gene NFKB2 (NFKB2 expression in hepatocytes): 0.12
- RNA-seq results, gene NFKBIA (NFKBIA expression in hepatocytes): −0.06
- RNA-seq results, gene NFU1 (NFU1 expression in hepatocytes): −0.04
- RNA-seq results, gene NGLY1 (NGLY1 expression in hepatocytes): −0.07
- RNA-seq results, gene NHP2 (NHP2 expression in hepatocytes): 0.21
- RNA-seq results, gene NME1 (NME1 expression in hepatocytes): 0.06
- RNA-seq results, gene NOD2 (NOD2 expression in hepatocytes): 0.33
- RNA-seq results, gene NOP10 (NOP10 expression in hepatocytes): 0.2
- RNA-seq results, gene NOTCH1 (NOTCH1 expression in hepatocytes): 0.16
- RNA-seq results, gene NOTCH2 (NOTCH2 expression in hepatocytes): −0.03
- RNA-seq results, gene NPC1 (NPC1 expression in hepatocytes): 0.3
- RNA-seq results, gene NR1H4 (NR1H4 expression in hepatocytes): 0.22
- RNA-seq results, gene NUBPL (NUBPL expression in hepatocytes): −0.06
- RNA-seq results, gene NUDT7 (NUDT7 expression in hepatocytes): −0.23
- RNA-seq results, gene NUDT12 (NUDT12 expression in hepatocytes): −0.17
- RNA-seq results, gene OAT (OAT expression in hepatocytes): 0.1
- RNA-seq results, gene OPA3 (OPA3 expression in hepatocytes): 0.03
- RNA-seq results, gene OTC (OTC expression in hepatocytes): −0.18
- RNA-seq results, gene PAF1 (PAF1 expression in hepatocytes): 0.09
- RNA-seq results, gene PAH (PAH expression in hepatocytes): 0.05
- RNA-seq results, gene PANK2 (PANK2 expression in hepatocytes): −0.22
- RNA-seq results, gene PAOX (PAOX expression in hepatocytes): 0.16
- RNA-seq results, gene PC (PC expression in hepatocytes): 0.17
- RNA-seq results, gene PCCA (PCCA expression in hepatocytes): 0.13
- RNA-seq results, gene PCK2 (PCK2 expression in hepatocytes): 0.46
- RNA-seq results, gene PCSK9 (PCSK9 expression in hepatocytes): 0.26
- RNA-seq results, gene PCYT1A (PCYT1A expression in hepatocytes): 0.09
- RNA-seq results, gene PDGFRA (PDGFRA expression in hepatocytes): −0.43
- RNA-seq results, gene PDP1 (PDP1 expression in hepatocytes): −0.04
- RNA-seq results, gene PEPD (PEPD expression in hepatocytes): 0.32
- RNA-seq results, gene PEX11A (PEX11A expression in hepatocytes): 0.02
- RNA-seq results, gene PEX12 (PEX12 expression in hepatocytes): 0.11
- RNA-seq results, gene PEX14 (PEX14 expression in hepatocytes): 0.15
